Results reported in patent US20210052701A1, “Methods of Treating Vascular Leakage Using CXCL12 Peptides” (The Medical College of Wisconsin, Inc., priority 2018, published 2021).
Where no end group is shown, it is not given here. [ ]: non-standard residue; d: D form. sY = N[C@@H](Cc1ccc(OS(=O)(=O)O)cc1)C(=O)O

Assays:
[1] = target: CXCL12 (Homo sapiens, UniProt P48061); test: CXCL12 dimerization (biophysical measurements); assay type: binding; settings: sulfopeptide bound to the sTyr21 recognition site
Description: The present invention provides a constitutively monomeric CXCL12 variant (CXCL121) engineered to resist peptide-induced dimerization by maintaining steric repulsion of the chemokine helix. Six short CXCR4 peptides, centered on Tyr7, Tyr12, or Tyr21, were synthesized to study the contributions of individual sulfotyrosines in peptide binding and specificity. Peptides were titrated into CXCL12WT, CXCL122 (a constitutively dimeric variant of CXCL12 containing L36C/A65C mutations), or CXCL121 and the interaction was monitored by 2D NMR. While sulfopeptides encompassing sTyr7 and sTyr12 interacted nonspecifically, an […] Tyr7 peptide induced a new set of chemical shift perturbations in the CXCL12 monomer that were also observed upon binding of the intact CXCR41-38 N-terminal domain.

[2] = test system: HULEC-5a; test: Effects of CXCL12 and ubiquitin on thrombin-induced impairment of HULEC-5a monolayer permeability; assay type: cell-based, human; settings: thrombin 50 nM, after 10 min 50 nM ligand
Experimental: FIGS. 4A-4D show effects of CXCL12 and ubiquitin on thrombin-induced impairment of HULEC-5a monolayer permeability. (A) HULEC-5a were grown to a confluent monolayer on collagen-coated permeable membranes and then exposed to different concentration of thrombin for 10 min, followed by the addition of FITC-dextran. Endothelial permeability was assessed by measuring the amount of FITC-dextran that permeated through the cell monolayer. No cells: 100% permeability. RFU: Relative fluorescence units. N=3 in quadruplicate. (B) Dose-response curves for thrombin-induced permeability, data from A. 100% permeability=permeability in the absence of HULEC-5a. Open squares: Permeability at t=55 min. Light grey squares: Permeability at t=135 min. Dark grey squares: Permeability at t=255 min. […] Endothelial permeability was assessed by measuring the amount of FITC-dextran that permeated through the cell monolayer. RFU: Relative fluorescence units. […]
In vitro vascular permeability assays—Permeability assays were obtained from Millipore (ECM642) and performed as per manufacturer's instructions. […] Fluorescein isothiocyanate (FITC)-dextran (20 μg/mL) was then added on top of the monolayer and the amount of FITC-dextran that permeated through the monolayer was quantified by measuring fluorescence in a Synergy 2 Multi-mode Microplate Reader (BioTek, Winooski, Vt.) at various time points over a 255 min time period.

[3] = test system: hPPAEC; test: In vitro vascular permeability assay (FITC-dextran), hPPAEC monolayer, CXCR4/ACKR3 ligands without thrombin; assay type: cell-based, human; settings: 50 nM ligand for 10 min, then FITC-dextran; no thrombin
Experimental: FIGS. 1A-1B show expression of CXCR4, ACKR3 and CXCR4:ACKR3 heteromers on hPPAEC and effects of CXCR4/ACKR3 ligands on hPPAEC monolayer permeability. (A) Detection of CXCR4, ACKR3 and CXCR4:ACKR3 heteromers on hPPAEC by PLA. Typical PLA images for the detection of individual receptors and CXCR4:ACKR3 heteromers. Images show merged PLA/40,6-diamidino-2-phenylindole dihydrochloride (DAPI) signals. Ctrl: Omission of one secondary antibody. (B) hPPAEC were grown to a confluent monolayer on collagen-coated permeable membranes. Cells were then exposed to vehicle or 50 nM of CXCR4/ACKR3 ligands for 10 minutes, as indicated, followed by the addition of FITC-dextran. Endothelial permeability was assessed by measuring the amount of FITC-dextran that permeated through the cell monolayer. N=3 in quadruplicate. No cells: 100% permeability, open squares. RFU: Relative fluorescence units. *: p<0.05 vs. vehicle (2-way ANOVA/Bonferroni's multiple comparison post hoc test).
Cells and cell lines—Human primary pulmonary artery endothelial cells (hPPAEC) (ATCC, PCS-100-022) and the human lung microvascular endothelial cell line HULEC-5a (ATCC, CRL-3244) were cultured in vascular cell basal medium (ATCC, PCS-100-030) with endothelial cell growth kit-VEGF (ATCC, PCS-100-041). The HTLA cell line, a HEK293 cell line stably expressing a tTA-dependent luciferase reporter and a β-arrestin2-TEV fusion gene, was generously provided by the laboratory of Dr. Bryan Roth and maintained in high glucose Dulbecco's Modified Eagle's Medium supplemented with 10% (vol/vol) FBS, 1× non-essential amino acids, 100 U/mL penicillin, 100 μg/mL streptomycin, 50 μg/mL hygromycin B, and 2 μg/mL puromycin. All cells were cultured at 37° C., 5% CO2 in a humidified atmosphere.
(§1) In vitro vascular permeability assays—Permeability assays were obtained from Millipore (ECM642) and performed as per manufacturer's instructions. In brief, 96-well collagen-coated permeability assay plates were pre-hydrated for 15 min, 5×10^5 cells were seeded on each well and grown to a confluent monolayer for 48 hours. Fluorescein isothiocyanate (FITC)-dextran (20 μg/mL) was then added on top of the monolayer and the amount of FITC-dextran that permeated through the monolayer was quantified by measuring fluorescence in a Synergy 2 Multi-mode Microplate Reader (BioTek, Winooski, Vt.) at various time points over a 255 min time period.

[4] = test system: hPPAEC; test: Effects of CXCR4 agonists / CXCL12 variants on thrombin-induced impairment of hPPAEC monolayer permeability; assay type: cell-based, human
Experimental: FIGS. 3A-3D show effects of CXCL12 and ubiquitin on thrombin-induced impairment of hPPAEC monolayer permeability. hPPAEC were grown to a confluent monolayer on collagen-coated permeable membranes. (A) hPPAEC were pre-treated with vehicle, 100 nM of CXCL12 or ubiquitin for 10 minutes, as indicated, and then exposed to thrombin (50 nM), followed by the addition of FITC-dextran. Vehicle: no thrombin. Endothelial permeability was assessed by measuring the amount of FITC-dextran that permeated through the cell monolayer. No cells: 100% permeability (open circles). RFU: Relative fluorescence units. N=3 in quadruplicate. *: p<0.05 vs. vehicle/thrombin. (B-D) hPPAEC were exposed to 35 nM of thrombin or vehicle. After 10 min, thrombin-exposed cells were treated with vehicle, CXCL12 (50 nM) and/or AMD3100 (10 μM) (B), with vehicle, ubiquitin (50 nM) and/or AMD3100 (10 μM) (C) or with various concentrations of ubiquitin (D) followed by the addition of FITC-dextran. The experimental conditions are indicated. Endothelial permeability was assessed by measuring the amount of FITC-dextran that permeated through the cell monolayer. RFU: Relative fluorescence units. N=3 in quadruplicate. *: p<0.05 vs. thrombin/vehicle (2-way ANOVA/Bonferroni's multiple comparison post hoc test).
(§2) FIGS. 7A-7D show dose-dependent effects of CXCL12α/β, CXCL12 (3-68) and CXCL12 mutants K27A/R41A/R47A, R47E and S-S4V on thrombin-induced impairment of hPPAEC monolayer permeability. hPPAEC cells were grown to a confluent monolayer on collagen-coated permeable membranes. hPPAEC were then exposed to 35 nM of thrombin. After 10 min, thrombin-exposed cells were treated with vehicle or 50 nM (A), 5 nM (B), 0.5 nM (C) or 0.05 nM (D) of the various proteins, as indicated. In (D) 5 nM CXCL12a was used as a positive control. N=3 in quadruplicate.
as §2, with “8A-8D” for “7A-7D”, “CXCL12α, CXCL121” for “CXCL12α/β, CXCL12 (3-68)”, “CXCL122” for “CXCL12 mutants K27A/R41A/R47A, R47E and S-S4V”, “CXCL12α” for “CXCL12a”
FIGS. 9A-9B show inhibition of thrombin-induced hyper-permeability of hPPAEC by CXCL12/CXCL12 variants. % inhibition: % inhibition of thrombin-induced hyperpermeability. Data from FIGS. 7 and 8 at t=255 min. N=3 in quadruplicate. *: p<0.05 vs. CXCL12a (2-way ANOVA/Bonferroni's multiple comparison post hoc test).
as §1

Sequence of CXCL12 (P48061 22-89 limits assumed): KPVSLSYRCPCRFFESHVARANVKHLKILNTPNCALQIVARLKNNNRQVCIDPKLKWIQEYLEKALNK

Row | increase of the CXCL12 dimerization affinity [1] | Substance | effect on thrombin-mediated impairment of HULEC-5a barrier function when added after thrombin [2] | effect on hPPAEC monolayer permeability [3] | effect of pre-treatment on thrombin-induced hyper-permeability of hPPAEC ([4]; 100 nM for 10 min, then thrombin (50 nM)) | effect on thrombin-induced permeability of hPPAEC when added after thrombin ([4]; thrombin 35 nM, after 10 min CXCL12 or ubiquitin 50 nM, AMD3100 10 μM) | effect on thrombin-induced hyper-permeability at various concentrations ([4]; thrombin 35 nM, ubiquitin 30 nM-3 μM after thrombin) | effect on thrombin-induced hyper-permeability, ubiquitin plus AMD3100 ([4]; thrombin 35 nM, ubiquitin 50 nM plus AMD3100 10 μM)
1 | eight-fold | sTyr21 sulfopeptide: short CXCR4 peptide centered on sulfated Tyr21 (SGD[sY]DSM) | – | – | – | – | – | –
2 | – | ubiquitin | significantly reduced thrombin-mediated impairment of endothelial cell barrier function | did not affect hPPAEC permeability | significantly attenuated thrombin-induced hyper-permeability of hPPAEC | did not modulate thrombin-induced hyper-permeability | did not attenuate thrombin-induced hyper-permeability | did not modulate thrombin-induced hyper-permeability
